# Assay results reported in the supplement of paper PMC10307832.
# Legend:
# Assay in all cases: relative viability (nuclei count vs DMSO), 5 days (fraction); higher = more cells survive
# AT-7519 + Alpelisib = compound: O=C(NC1CCNCC1)c1n[nH]cc1NC(=O)c1c(Cl)cccc1Cl [AT-7519] + Cc1nc(NC(=O)N2CCC[C@H]2C(N)=O)sc1-c1ccnc(C(C)(C)C(F)(F)F)c1 [Alpelisib] (partner 2 µM)
# In short: (§1)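 Relative viability was taken as the ratio of nuclei in treated wells to nuclei in vehicle wells. Lung cancer cell lines in 1536-well plates received compounds by pin tool one day after seeding, either one drug alone or a fixed anchor-drug dose plus five library-drug doses (not always all listed) in √10 steps. Nuclei were counted on 4× images after 5 days of treatment, and values are medians of duplicate plates.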
# [1] = compound: C1=CC2=C(C=C(C(=C2N=C1)O)N=NC3=CC4=C(C=C3)C=C(C=C4)S(=O)(=O)O)S(=O)(=O)O + C[C@]1(O)C[C@@H](c2nc(-c3ccc4ccc(-c5ccccc5)nc4c3)c3c(N)nccn32)C1 [Linsitinib] (partner 1 µM)
# In short: as §1
# [2] = compound: C1=CC2=C(C=C(C(=C2N=C1)O)N=NC3=CC4=C(C=C3)C=C(C=C4)S(=O)(=O)O)S(=O)(=O)O + O=C(CCCCCCC(=O)Nc1ccccc1)NO [Vorinostat] (partner 1 µM)
# In short: as §1
# [3] = compound: C1=CC2=C(C=C(C(=C2N=C1)O)N=NC3=CC4=C(C=C3)C=C(C=C4)S(=O)(=O)O)S(=O)(=O)O + N=C(N)NC(=N)NCCc1ccccc1 [Phenformin] (partner 250 µM)
# In short: as §1
cell line,measurement,setting,value
UMC-11,relative viability,AT-7519 + Alpelisib; first compound 0.01 µM,0.841
same,relative viability,AT-7519 + Alpelisib; first compound 0.03162 µM,0.94
same,relative viability,AT-7519 + Alpelisib; first compound 0.3162 µM,0.587
same,relative viability,AT-7519 + Alpelisib; first compound 1 µM,0.35
same,relative viability,[1]; first compound 0.08 µM,1.11
same,relative viability,[1]; first compound 0.253 µM,0.943
same,relative viability,[1]; first compound 0.8 µM,1.03
same,relative viability,[1]; first compound 2.53 µM,1.02
same,relative viability,[1]; first compound 8 µM,0.944
same,relative viability,[2]; first compound 0.08 µM,0.462
same,relative viability,[2]; first compound 0.253 µM,0.367
same,relative viability,[2]; first compound 0.8 µM,0.475
same,relative viability,[2]; first compound 2.53 µM,0.403
same,relative viability,[2]; first compound 8 µM,0.392
same,relative viability,[3]; first compound 0.08 µM,0.326
same,relative viability,[3]; first compound 0.253 µM,0.31
same,relative viability,[3]; first compound 0.8 µM,0.336
same,relative viability,[3]; first compound 2.53 µM,0.345
same,relative viability,[3]; first compound 8 µM,0.338
